Data as given in patent US7982042B2, “Thiozanthene derivatives as delta-opioid modulators” (priority 2003, dated 2011).
Where two headings read alike, the source gives them in different places.

Columns and labels:
[1] = molecular target: T1, Rat brain delta opioid receptor (Rattus norvegicus, UniProt P33533); experiment: Rat brain delta opioid receptor binding
T1 construct: from tissue; host or cells: rat brain

human mu opioid receptor = molecular target: T2, human mu opioid receptor (Homo sapiens, UniProt P35372); experiment: [35S]GTPγS binding assay in CHO-hμ cell membranes; format: biochemical; conditions: inhibition relative to 1 uM DAMGO; for inhibition at 10 µM: read-out: hMOR GTPγS % I @10 μM
T2 construct: purchased Receptor Biology, Inc. (Baltimore, Md.); host or cells: CHO cells expressing the human mu receptor (membranes)
T2 sequence (P35372 whole entry): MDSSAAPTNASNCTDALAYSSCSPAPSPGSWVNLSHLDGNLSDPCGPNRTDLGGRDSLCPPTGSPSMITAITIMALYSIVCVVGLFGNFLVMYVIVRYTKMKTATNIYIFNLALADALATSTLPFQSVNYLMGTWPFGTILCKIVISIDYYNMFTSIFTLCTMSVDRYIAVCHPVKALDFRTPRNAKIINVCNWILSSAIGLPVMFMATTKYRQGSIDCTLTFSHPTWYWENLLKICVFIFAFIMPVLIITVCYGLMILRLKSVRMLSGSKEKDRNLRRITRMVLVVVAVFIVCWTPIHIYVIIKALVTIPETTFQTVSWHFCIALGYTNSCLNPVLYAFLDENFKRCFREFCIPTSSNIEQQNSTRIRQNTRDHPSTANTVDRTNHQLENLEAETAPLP
Protocol: CHO-hμ cell membranes are purchased from Receptor Biology, Inc. (Baltimore, Md.). About 10 mg/ml of membrane protein is suspended in 10 mM TRIS-HC pH 7.2, 2 mM EDTA, 10% sucrose.
(§1) Membranes are maintained at 4-8° C. 1 ml of membranes is added into 15 ml cold binding assay buffer. The assay buffer contains 50 mM HEPES, pH 7.6, 5 mM MgCl2, 100 mM NaCl, 1 mM DTT and 1 mM EDTA. The membrane suspension is homogenized with a Polytron 2 times and centrifuged at 3000 rpm for 10 min. The supernatant is then centrifuged at 18,000 rpm for 20 min. The pellet is saved in a tube and 10 ml assay buffer is added to the tube. The pellet and buffer are mixed with a Polytron.
(§2) The pellet membranes (20 μg/ml) are preincubated with SPA (10 mg/ml) at 25 C′ for 45 min in the assay buffer. The SPA (5 mg/ml) coupled with membranes (10 μg/ml) is then incubated with 0.5 nM [^35S]GTPgS in the same HEPES buffer containing 50 μM GDP in total volume of 200 μl. Increasing concentrations of receptor agonists are used to stimulate [^35S]GTPgS binding. The basal binding is tested in the absence of agonists and non-specific binding is tested in the present 10 μM unlabeled GTPγS. The data are analyzed on a Top counter.
% of Basal=(stimulate−non-specific)*100/(basal−non specific). % inhibition value values are calculated using a formula, % Inhibition=(% Basal of 1 uM DAMGO−% Basal of compound)*100/(% Basal of 1 uM DAMGO−100)

[2] = molecular target: T3, Rat brain mu opioid receptor (Rattus norvegicus, UniProt P33535); experiment: Rat brain mu opioid receptor binding assay ([3H]DAMGO)
T3 construct: from tissue; host or cells: forebrain of male Sprague Dawley rats
T3 sequence (P33535 whole entry): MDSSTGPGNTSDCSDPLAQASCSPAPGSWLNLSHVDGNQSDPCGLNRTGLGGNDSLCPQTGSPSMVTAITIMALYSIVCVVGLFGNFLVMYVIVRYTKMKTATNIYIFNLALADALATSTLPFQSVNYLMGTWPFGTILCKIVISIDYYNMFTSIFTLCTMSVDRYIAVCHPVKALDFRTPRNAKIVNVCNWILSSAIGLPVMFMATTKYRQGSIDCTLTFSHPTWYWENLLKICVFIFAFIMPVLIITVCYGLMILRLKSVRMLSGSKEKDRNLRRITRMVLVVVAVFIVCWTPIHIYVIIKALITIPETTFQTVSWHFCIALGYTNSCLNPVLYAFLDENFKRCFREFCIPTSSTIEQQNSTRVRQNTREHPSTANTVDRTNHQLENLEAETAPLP
Protocol: • Procedure: Male, Sprague Dawley (150-250 g, VAF, Charles River, Kingston, N.Y.) are killed by CO2, and their brains removed and placed immediately in ice cold Tris HCl buffer (50 mM, pH 7.4). The forebrains are separated from the remainder of the brain by a coronal transection, beginning dorsally at the colliculi and passing ventrally through the midbrain-pontine junction. After dissection, the forebrains are homogenized in Tris buffer in a Teflon®-glass homogenizer. The homogenate is diluted to a concentration of 1 g of forebrain tissue per 80 mL Tris and centrifuged at 39,000×g for 10 min. The pellet is resuspended in the same volume of Tris buffer containing 5 mM MgCl2 with several brief pulses from a Polytron homogenizer. This particulate preparation is used for the mu-opioid binding assays. […] Kd and Ki values are calculated using GraphPad PRISM data analysis program.

[3] = molecular target: T4, human delta opioid receptor (Homo sapiens, UniProt P41143); experiment: [35S]GTPγS binding assay in CHO-hδ cell membranes; format: biochemical; conditions: for inhibition at 10 µM: read-out: inhibition of GTP binding induced with 1 uM DPDPE
T4 construct: purchased Receptor Biology, Inc. (Baltimore, Md.); host or cells: CHO cells expressing the human delta receptor (membranes)
T4 sequence (P41143 whole entry): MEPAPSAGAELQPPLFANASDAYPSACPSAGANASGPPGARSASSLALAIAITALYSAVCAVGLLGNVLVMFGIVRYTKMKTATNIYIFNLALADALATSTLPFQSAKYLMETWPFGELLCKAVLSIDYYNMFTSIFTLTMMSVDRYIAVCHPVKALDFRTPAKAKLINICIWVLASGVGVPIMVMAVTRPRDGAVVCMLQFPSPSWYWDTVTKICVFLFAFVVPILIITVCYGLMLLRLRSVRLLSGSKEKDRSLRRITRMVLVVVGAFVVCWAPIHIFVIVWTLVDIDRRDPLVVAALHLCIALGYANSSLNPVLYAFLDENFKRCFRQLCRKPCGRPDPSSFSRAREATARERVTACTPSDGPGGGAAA
Protocol: CHO-hδ cell membranes are purchased from Receptor Biology, Inc. (Baltimore, Md.). 10 mg/ml of membrane protein is suspended in 10 mM TRIS-HC pH 7.2, 2 mM EDTA, 10% sucrose.
as §1, with “buffer contained” for “buffer contains”, “added into” for “added to”
as §2, with “25° C.” for “25 C′”, “presence of” for “present”, “GTP S.” for “GTPγS.”

[4] = human delta opioid receptor GTPγS functional assay, read-out: hDOR GTPγS EC50
[5] = hDOR GTPγS EC50, human delta opioid receptor GTPγS functional assay

T1 sequence (P33533 whole entry): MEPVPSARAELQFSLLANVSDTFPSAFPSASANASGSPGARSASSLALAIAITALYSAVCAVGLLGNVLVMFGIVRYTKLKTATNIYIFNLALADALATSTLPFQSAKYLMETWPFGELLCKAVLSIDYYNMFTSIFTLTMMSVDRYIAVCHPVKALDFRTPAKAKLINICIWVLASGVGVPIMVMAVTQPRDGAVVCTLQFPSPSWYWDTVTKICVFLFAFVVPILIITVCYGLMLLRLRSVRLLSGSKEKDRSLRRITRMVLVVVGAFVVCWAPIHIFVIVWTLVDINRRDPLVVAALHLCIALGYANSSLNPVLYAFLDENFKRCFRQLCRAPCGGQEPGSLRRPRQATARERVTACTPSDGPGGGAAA

## C=CCN1CCC(=C2c3ccccc3Oc3cc(C(=O)N(CC)CC)ccc32)CC1 [Compound 8, 9-(1-Allyl-piperidin-4-ylidene)-9H-xanthene-3-carboxylic acid diethylamide]
[1]; rDOR Ki
  Ki: 2.1 nM
Human mu opioid receptor
  inhibition at 10 µM: 1%
[2]; read-out: rMOR Ki
  Ki: 2820 nM
[3]; [4]
  EC50: 620 nM

## CCN(CC)C(=O)c1ccc2c(c1)Oc1ccccc1C2=C1CCN(CCc2ccccc2)CC1 [Compound 22]
[1]; rDOR Ki
  Ki: 45.4 nM
Human mu opioid receptor
  inhibition at 10 µM: 2%
[2]; read-out: rMOR Ki
  Ki: 2130 nM
[3]; [4]
  EC50: > 10000 nM

## CCN(CC)C(=O)c1ccc2c(c1)Oc1ccccc1C2=C1CCN(Cc2ccccc2O)CC1 [Compound 30]
[1]; rDOR Ki
  Ki: 10.9 nM
Human mu opioid receptor
  inhibition at 10 µM: 24%
[2]; read-out: rMOR Ki
  Ki: 912 nM
[3]; [4]
  EC50: 2480 nM

## CCN(CC)C(=O)c1ccc2c(c1)Oc1ccccc1C2=C1CCN(Cc2ccccn2)CC1 [Compound 29]
[1]; rDOR Ki
  Ki: 0.05 nM
Human mu opioid receptor
  inhibition at 10 µM: 34%
[2]; rMOR Ki
  Ki: 362 nM
[3]; [5]
  EC50: 31.6 nM

## CCN(CC)C(=O)c1ccc2c(c1)Oc1ccccc1C2=C1CCN(C=S)CC1 [Compound 37, 9-(1-Thioformyl-piperidin-4-ylidene)-9H-xanthene-3-carboxylic acid diethylamide]
[1]; rDOR Ki
  Ki: 2.02 nM
Human mu opioid receptor
  inhibition at 10 µM: 5%
[2]; rMOR Ki
  Ki: > 10000 nM
[3]; [5]
  EC50: 921 nM

## CCN(CC)C(=O)c1ccc2c(c1)Oc1ccccc1C2C1CCNCC1 (stereo not shown) [Compound 42, 9-Piperidin-4-yl-9H-xanthene-3-carboxylic acid diethylamide]
[1]; read-out: rDOR Ki
  Ki: 14.7 nM
Human mu opioid receptor
  inhibition at 10 µM: 4%
[2]; read-out: rMOR Ki
  Ki: 8790 nM
[3]; [4]
  EC50: 266 nM

## CCN(CC)C(=O)c1ccc2c(c1)Oc1ccccc1C2=C1CCN(CCO)CC1 [Compound 35, 9-[1-(2-Hydroxy-ethyl)-piperidin-4-ylidene]-9H-xanthene-3-carboxylic acid diethylamide]
[1]; rDOR Ki
  Ki: 7.01 nM
Human mu opioid receptor
  inhibition at 10 µM: 17%
[2]; read-out: rMOR Ki
  Ki: > 10000 nM
[3]; [4]
  EC50: 271 nM

## CCN(CC)C(=O)c1ccc2c(c1)Oc1ccccc1C2=C1CC2CCC(C1)N2 [Compound 24, 9-(8-Aza-bicyclo[3.2.1]oct-3-ylidene)-9H-xanthene-3-carboxylic acid diethylamide]
[1]; rDOR Ki
  Ki: 0.57 nM
Human mu opioid receptor
  inhibition at 10 µM: 1%
[2]; rMOR Ki
  Ki: 5690 nM
[3]; [5]
  EC50: 10.2 nM

## CCN(CC)C(=O)c1ccc2c(c1)Oc1ccccc1C2=C1CCN(C)CC1 [Compound 7, 9-(1-Methyl-piperidin-4-ylidene)-9H-xanthene-3-carboxylic acid diethylamide]
[1]; rDOR Ki
  Ki: 25.7 nM
Human mu opioid receptor
  inhibition at 10 µM: 1%
[2]; rMOR Ki
  Ki: 9190 nM

## CCN(CC)C(=O)c1ccc2c(c1)Oc1ccccc1C2=C1CCNCC1 [Compound 3, 9-Piperidin-4-ylidene-9H-xanthene-3-carboxylic acid diethylamide]
[1]; rDOR Ki
  Ki: 0.95 nM
Human mu opioid receptor
  inhibition at 10 µM: 1%
[2]; rMOR Ki
  Ki: 6790 nM
[3]; [5]
  EC50: 47 nM

## CCN(CC)C(=O)c1ccc2c(c1)OCc1ccccc1C2=C1CCN(CCc2ccccc2)CC1 [Compound 5, 11-(1-Phenylethylpiperidin-4-ylidene)-6,11-dihydro-dibenzo[b,e]oxepine-3-caroboxylic diethylamide]
[1]; rDOR Ki
  Ki: 25.3 nM
[2]; read-out: rMOR Ki
  Ki: 1290 nM
[3]; [4]
  EC50: > 10000 nM
[3]
  inhibition at 10 µM: 19%

## CCNC(=O)c1ccc2c(c1)OCc1ccccc1C2=C1CC2CCC(C1)N2CCc1ccccc1 [Compound 26, 1-(8-Phenethyl-8-aza-bicyclo[3.2.1]oct-3-ylidene)-6,11-dihydro-dibenzo[b,e]oxepine-3-carboxylic acid ethylamide]
[1]; read-out: rDOR Ki
  Ki: 5480 nM
Human mu opioid receptor
  hMOR GTPγS % I @10 μM: 41.00%
[2]; read-out: rMOR Ki
  Ki: 15.6 nM

## CCN(CC)C(=O)c1ccc2c(c1)Oc1ccccc1C2=C1CCN(C(=N)N)CC1 [Compound 31, 9-(1-Carbamimidoyl-piperidin-4-ylidene)-9H-xanthene-3-carboxylic acid diethylamide]
[1]; rDOR Ki
  Ki: 29.8 nM
Human mu opioid receptor
  inhibition at 10 µM: 14%
[2]; read-out: rMOR Ki
  Ki: 564 nM
[3]; [4]
  EC50: 253 nM

## CCN(CC)C(=O)c1ccc2c(c1)OCc1ccccc1C2=C1CCN(C)CC1 [Compound 1, 11-(1-Methyl-piperidin-4-ylidene)-6,11-dihydro-dibenzo[b,e]oxepine-3-carboxylic acid diethylamide]
[1]; rDOR Ki
  Ki: 25.5 nM
[2]; read-out: rMOR Ki
  Ki: 6410 nM
[3]; [4]
  EC50: > 10000 nM
[3]
  inhibition at 10 µM: 61%

## C=CCN1CCC(=C2c3ccccc3COc3cc(C(=O)N(CC)CC)ccc32)CC1 [Compound 6, 11-(1-Allyl-piperidin-4-ylidene)-6,11-dihydro-dibenzo[b,e]oxepine-3-carboxylic acid diethylamide]
[1]; rDOR Ki
  Ki: 4.25 nM
[2]; read-out: rMOR Ki
  Ki: 7910 nM
[3]; [4]
  EC50: 128 nM

## CCN(CC)C(=O)c1ccc2c(c1)Oc1ccccc1C2=C1CCN(C=Nc2ccccc2)CC1 [Compound 36, 9-(1-Phenyliminomethyl-piperidin-4-ylidene)-9H-xanthene-3-carboxylic acid diethylamide]
[1]; rDOR Ki
  Ki: 0.79 nM
Human mu opioid receptor
  inhibition at 10 µM: 14%
[2]; rMOR Ki
  Ki: > 10000 nM
[3]; [5]
  EC50: 42.5 nM

## CCN(CC)C(=O)c1ccc2c(c1)Sc1ccccc1C2=C1CC2CCC(C1)N2CCO [Compound 51, 9-[8-(2Hydroxy-ethyl)-8-aza-bicyclo[3.2.1]oct-3-ylidene]-9H-thioxanthene-3-carboxylic acid diethylamide]
[1]; rDOR Ki
  Ki: 4.85 nM
[2]; rMOR Ki
  Ki: > 100 nM
[3]; [5]
  EC50: 62.8 nM

## CCN(CC)C(=O)c1ccc2c(c1)Oc1ccccc1C2=C1CC2CCC(C1)N2Cc1ccccn1 [Compound 44]
[1]; rDOR Ki
  Ki: 0.15 nM
Human mu opioid receptor
  inhibition at 10 µM: 28%
[2]; rMOR Ki
  Ki: 77.2 nM
[3]; [5]
  EC50: 0.873 nM

## CCN(CC)C(=O)c1ccc2c(c1)Oc1ccccc1C2=C1CCN(Cc2ccoc2)CC1 [Compound 28, 9-(1-Furan-3-ylmethyl-piperidin-4-ylidene)-9H-xanthene-3-carboxylic acid diethylamide]
[1]; rDOR Ki
  Ki: 0.07 nM
Human mu opioid receptor
  inhibition at 10 µM: 24%
[2]; rMOR Ki
  Ki: 811 nM
[3]; [5]
  EC50: 70.3 nM

## CCN(CC)C(=O)c1ccc2c(c1)Sc1ccccc1C2=C1CC2CCC(C1)N2Cc1ccc2c(c1)OCO2 [Compound 47, 9-(8-Benzo[1,3]dioxol-5-ylmethyl-8-aza-bicyclo[3.2.1]oct-3-ylidene)-9H-thioxanthene-3-carboxylic acid diethylamide]
[1]; rDOR Ki
  Ki: 4.5 nM
Human mu opioid receptor
  inhibition at 10 µM: 59.2%
[2]; rMOR Ki
  Ki: 48.3 nM
[3]; [4]
  EC50: 125 nM

## CCN(CC)C(=O)c1ccc2c(c1)Oc1ccccc1C2=C1CC2CCC(C1)N2CCSC [Compound 40, 9-[8-(Methylsulfanyl-ethyl)-8-aza-bicyclo[3.2.1]oct-3-ylidene]-9H-xanthene-3-carboxylic acid diethylamide]
[1]; rDOR Ki
  Ki: 12 nM
[2]; rMOR Ki
  Ki: > 10000 nM
[3]; [5]
  EC50: 267 nM

## CCN(CC)C(=O)c1ccc2c(c1)Sc1ccccc1C2=C1CC2CCC(C1)N2CC1CC1 [Compound 49]
[1]; rDOR Ki
  Ki: 25 nM
[2]; rMOR Ki
  Ki: > 100 nM
[3]; [5]
  EC50: 252 nM
